In patent US8865750B2, “Small molecule inhibitors of RGS proteins” (The Regents of The University of Michigan, priority 2011, dated 2014):
“Also recorded” adds a separate entry of the source.

Tests used:
RGS4 [1] = molecular target: T1, RGS4 (Homo sapiens (Human), UniProt P49798); test: Carbachol Ca2+ mobilization, M3 HEK-293 cells with doxycycline-induced RGS4; format: cell-based
Procedure: Calcium Mobilization Experiments:
A stable cell line was developed based upon the HEK-293 Flp-In TREx cell line (Invitrogen, Carlsbad, Calif.) that stably express the muscarinic M3 receptor and have human RGS4 expression under doxycycline control. Cells were maintained in DMEM supplemented with 10% fetal bovine serum and Penicillin (100 units/ml)-Streptomycin (100 μg/ml) under 5% CO2 at 37° C. For experiments, cells were split into 96-well black, clear bottom, poly-D-lysine coated microtiter plates (Nunc, Cat. #152037) at a density of 20,000 cells/well in DMEM containing 10% fetal bovine serum and Penicillin (100 units/ml), Streptomycin (100 μg/ml). […] Compounds and/or carbachol were added to the wells and the fluorescence intensity was measured using a FlexStation (Molecular Devices, Sunnyvale, Calif.) plate reader. Data analysis was performed by calculating the area under the curve or maximal fluorescence intensity from a 120 second kinetic measurement.
Calcium signaling transients: A stable cell line was developed based upon the HEK-293 Flp-In TREx cell line (Invitrogen, Carlsbad, Calif.) that stably express the muscarinic M3 receptor and have human RGS4 expression under doxycycline control. […] Compounds and/or carbachol were added to the wells and the fluorescence intensity was measured using a FlexStation (Molecular Devices, Sunnyvale, Calif.) plate reader. […]
Target sequence in this assay (P49798 whole entry): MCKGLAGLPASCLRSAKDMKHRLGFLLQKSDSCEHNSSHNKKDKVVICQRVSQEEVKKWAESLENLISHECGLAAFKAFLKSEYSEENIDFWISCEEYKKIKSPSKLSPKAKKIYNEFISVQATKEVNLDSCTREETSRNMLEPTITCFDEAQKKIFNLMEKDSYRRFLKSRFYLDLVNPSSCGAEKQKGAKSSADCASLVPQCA

Tail suspension test = format: in vivo, mice
Description: This Example describes antidepressant activity of compounds of embodiments of the present invention. Antidepressant-like effects of CCG 203769: The tail suspension test in mice is a model of learned helplessness and is used as an assay for antidepressant medications. In this test antidepressant drugs (such as SSRIs) decrease the time the animals spend immobile by increasing escape-like behaviors.

[2] = test system: muscarinic class of GPCRs; test: NIMH Psychoactive Drug Screening Program receptor panel
Procedure: (§1) Furthermore, the compound was tested against a panel of receptors via collaboration with the NIMH Psycoactive Drug Screening Program.

αAR = test: as above
Procedure: as §1

RGS16 = RGS16 (Homo sapiens (Human), UniProt O15492); test: FCPIA: Gαo binding to RGS16; settings: Table 7
RGS16, sequence (O15492 whole entry, species assumed): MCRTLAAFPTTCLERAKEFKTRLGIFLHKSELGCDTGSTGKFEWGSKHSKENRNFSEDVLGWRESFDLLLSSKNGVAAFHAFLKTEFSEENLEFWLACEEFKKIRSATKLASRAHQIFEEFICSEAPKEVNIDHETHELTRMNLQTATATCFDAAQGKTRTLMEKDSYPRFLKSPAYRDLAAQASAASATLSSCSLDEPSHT
Procedure: FCPIA Dose Response and Reversibility Experiments:
FCPIA was performed as previously described using chemically biotinylated RGS proteins and AlexaFluor-532 labeled Gα0. (Roman et al., J Biomol Screen, 2009; Blazer, L. L., et al., Mol Pharmacol).
RGS/Gα binding studies: The binding of biotinylated RGS proteins to fluorescently labeled Gαo was measured by Flow Cytometry Protein Interaction Assay (FCPIA) method previously described (Roman et al., (2009) J Biomol Screen.; Blazer et al., (2010) Curr Protoc Cytom Chapter 13, Unit 13 11 11-15; Roman et al., (2007) Mol Pharmacol 71, 169-175) as were the measures of compound reversibility.

PLCβ3 = PLCβ3 (Homo sapiens (Human), UniProt Q01970); test: PLCβ inhibition assay; format: biochemical; settings: Table 7
PLCβ3, sequence (Q01970 whole entry, species assumed): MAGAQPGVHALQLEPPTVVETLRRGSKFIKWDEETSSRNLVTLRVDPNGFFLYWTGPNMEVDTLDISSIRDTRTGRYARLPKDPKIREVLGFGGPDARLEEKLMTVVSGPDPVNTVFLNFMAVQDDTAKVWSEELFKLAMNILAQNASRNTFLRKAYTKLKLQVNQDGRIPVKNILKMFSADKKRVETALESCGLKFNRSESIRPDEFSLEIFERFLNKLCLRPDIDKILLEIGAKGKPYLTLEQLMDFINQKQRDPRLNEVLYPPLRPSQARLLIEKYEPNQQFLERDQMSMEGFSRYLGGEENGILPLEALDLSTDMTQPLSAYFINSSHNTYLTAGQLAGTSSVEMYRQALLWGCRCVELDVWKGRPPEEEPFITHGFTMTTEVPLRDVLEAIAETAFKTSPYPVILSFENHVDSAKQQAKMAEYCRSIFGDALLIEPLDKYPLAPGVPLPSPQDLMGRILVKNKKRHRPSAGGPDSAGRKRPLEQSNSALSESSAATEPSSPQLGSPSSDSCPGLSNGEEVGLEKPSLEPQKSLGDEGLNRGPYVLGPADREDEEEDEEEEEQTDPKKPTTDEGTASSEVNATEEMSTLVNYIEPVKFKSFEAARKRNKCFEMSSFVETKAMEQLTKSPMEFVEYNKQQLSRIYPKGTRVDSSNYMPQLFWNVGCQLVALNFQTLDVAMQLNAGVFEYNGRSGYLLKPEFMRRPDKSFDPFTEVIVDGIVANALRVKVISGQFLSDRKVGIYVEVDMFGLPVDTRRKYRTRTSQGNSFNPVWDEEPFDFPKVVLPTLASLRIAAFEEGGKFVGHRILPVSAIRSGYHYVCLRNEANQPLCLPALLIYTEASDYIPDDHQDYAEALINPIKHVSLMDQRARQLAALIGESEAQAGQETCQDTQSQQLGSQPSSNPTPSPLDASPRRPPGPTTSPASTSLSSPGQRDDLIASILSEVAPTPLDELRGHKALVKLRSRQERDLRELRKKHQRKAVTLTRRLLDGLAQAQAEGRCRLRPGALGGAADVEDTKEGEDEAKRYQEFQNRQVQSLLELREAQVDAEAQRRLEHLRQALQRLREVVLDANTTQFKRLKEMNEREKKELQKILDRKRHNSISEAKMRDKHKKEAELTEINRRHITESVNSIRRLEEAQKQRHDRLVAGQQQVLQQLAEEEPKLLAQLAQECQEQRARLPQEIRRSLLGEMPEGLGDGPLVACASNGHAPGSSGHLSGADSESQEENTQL
Procedure: PLCβ inhibition assay: Lipid vesicles containing 200 μM phosphatidylethanolamine, 50 μM PIP2 (Avanti Polar Lipids), and ˜4000-8000 cpm [^3H]-labeled PIP2 (Perkin-Elmer) per assay were generated by combining the lipids in a borosilicate glass tube and drying the mixture under a stream of nitrogen. Dried lipids were resuspended in 50 mM HEPES pH 7, 80 mM KCl, 2 mM EGTA and 1 mM DTT using a bath sonicator. Activity assays were performed in a final volume of 60 μL containing 3 ng mL^−1 PLCβ3, 50 mM HEPES pH 7, 80 mM KCl, 15 mM NaCl, 0.83 mM MgCl2, 3 mM DTT, 1 mg mL^−1 BSA, 2.5 mM EGTA, 0.2 mM EDTA, 2% DMSO, and enough CaCl2 to give a free concentration of ˜200 nM. […] The reactions were initiated by the addition of liposomes and transferred to 30° C. for 5 min. Reactions were terminated by the addition of 100 μL 10 mg mL^−1 BSA and 200 μL 10% (w/v) ice-cold trichloroacetic acid. The reactions were centrifuged at 8000 g for 5 min to pellet proteins and liposomes, and 200 μL of the resulting supernatant containing free [^3H]-IP3 was measured by scintillation counting (Ghosh et al., (2004) Methods Mol Biol 237, 67-75) GSK-3β inhibition assay: […]

RGS4 [3] = molecular target: T1, RGS4; test: Single turnover GTPase (GAP) assay, RGS4; format: biochemical
Procedure: Single Turnover GTPase Measurements:
Compounds were tested for the ability to inhibit the RGS4 and RGS8-stimulated increase in GTP hydrolysis by Gα0 as described previously (Roman, D. L., et al., Mol Pharmacol, 2007. 71(1): p. 169-75; Roof, R. A., et al., Chem Biol Drug Des, 2006. 67(4): p. 266-74).
Compounds were tested for the ability to inhibit the RGS4 and RGS8-stimulated increase in GTP hydrolysis by Gα0 as previously described (Roman, D. L., et al., Mol Pharmacol, 2007. 71(1): p. 169-75; Roof, R. A., et al., Chem Biol Drug Des, 2006. 67(4): p. 266-74).
Single-turnover GAP assay: Experiments were performed as previously described using purified his6-tagged Gαo (Blazer et al., Biochemistry 50, 3181-3192; Roof et al., (2008) Chem Biol Drug Des 72, 111-119).
Target sequence in this assay (P49798 52-205, species assumed): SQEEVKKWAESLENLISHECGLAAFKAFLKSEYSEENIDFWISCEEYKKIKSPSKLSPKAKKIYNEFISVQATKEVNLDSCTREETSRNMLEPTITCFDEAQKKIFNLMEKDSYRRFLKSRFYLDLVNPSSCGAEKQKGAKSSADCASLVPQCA

With CCCCn1c(=O)sn(CC)c1=O [CCG-203769, 2-ethyl-4-butyl-1,2,4-thiadiazolidine-3,5-dione] as the molecule, how does the “lowest concentration with enhanced Ca2+ signaling” value (RGS4 [1]) read?
Its value is 1 µM.

What about the “reversal of RGS4-mediated suppression of carbachol Ca2+ response” value (RGS4 [1]; 15 min pretreatment, 1 and 3 μM) of the same molecule?
Its value is “partially rescued; also recorded: partially reverse”.

What about the “effect on immobility in RGS4 knockout mice” value (Tail suspension test; 10 mg/kg) of the same molecule?
Its value is “lost”.

And the immobility time (Tail suspension test; IP, significant effect at 10 mg/kg)?
Its immobility time is “decreases their immobility time in a dose-dependent manner”.

And the “effect upon muscarinic class of GPCRs” value [2]?
The value was “little to no observable effect”.

And the “effect on αAR” value (αAR)?
Its value is “able to inhibit”.

And the IC50 (RGS16)?
The IC50 was 6 µM.

And the IC50 (PLCβ3)?
The IC50 was greater than 100 µM.

And the “inhibition of GAP activity of RGS4” value (RGS4 [3])?
The value was “potently inhibits the functional effect of RGS4”.
